Data taken from PubChem BioAssay AID179 (DTP/NCI, 2004).
“And” between values parts separate entries of the source, which are not always exact repeats. Equal values may be shown once. The source made the active and inactive calls.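 How the source made its calls: active means compounds giving half or more protection of infected cells from virus-caused growth loss, again on retest; inactive means the rest.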 Where a SMILES comes first, the peptide text is derived from it.

Test system: CEM cells HIV-1 protection, formazan growth assay
Assay: NCI AIDS Antiviral Assay
Conditions: for IC50: measured here: growth of uninfected CEM cells
How it was run: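 Protection of CEM cells against HIV-1 measured as cell growth via soluble formazan read-out, with five concentrations tested on both infected and uninfected cells; failure to protect may reflect toxicity.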

| Structure (SMILES) | EC50 [µM] | IC50 | outcome |
| --- | --- | --- | --- |
| CCCCN(CCCC)CC(C(C)=O)C(c1ccccc1)c1c(O)c2ccccc2oc1=O (stereo unspecified) | > 41.7 | > 41.7 µM | – |
| COc1ccc(CCNC(=S)/N=C\C2=C(O)c3ccccc3C2=O)cc1OC | > 200 | > 200 µM | – |
| COC(=O)CC1c2ccccc2N2C(=O)Cc3c([nH]c4ccccc34)C12 (stereo unspecified) | > 200 | 191 µM | – |
| CCOC(=O)C(NC(=O)c1ccccc1)(Nc1ccc(S(=O)(=O)Nc2ccc(OC)nn2)cc1)C(F)(F)F (stereo unspecified) | > 200 | > 200 µM | – |
| C/C=C(/C)C(=O)O[C@@H]1CCN2CC[C@H](COC(=O)/C(=C/C)CO)C12 (stereo partly specified) | > 200 | 107 µM | – |
| CC(C)(C)OC(=O)N1CCCC1=O | > 200 | > 200 µM | – |
| COc1cc(C)c(O)c(C(=O)O)c1 | – | – | inactive |
| CC(=O)NC(CCCCN)C(=O)NCc1ccccc1 (stereo unspecified) | > 912 | > 912 µM | – |
| COC(=O)C1ON2C(C1C(=O)OC)C(C)(C)N(O)C2(C)C (stereo unspecified) | > 200 | > 200 µM | – |
| COc1ccc(S(=O)(=O)N(CC(=O)O)c2ccccc2)cc1 | – | – | inactive |
| COC(=O)c1ccccc1CC1Cc2ccc3c(c2C1)CCC3 (stereo unspecified) | > 200 | 91.2 µM | – |
| NS(=O)(=O)c1ccc(NC(=O)CC(=O)Nc2ccc(S(N)(=O)=O)cc2)cc1 | – | – | inactive |
| O=C(c1ccccc1)c1nnn(Cc2cccc(Cl)c2)c1C(=O)c1ccccc1 | > 12.9 | > 12.9 µM | – |
| COc1ccc(Cc2c(N)[nH]c(=O)n(C)c2=O)cc1 | > 200 | 89.1 µM | – |
| O=C1Nc2ccccc2S/C1=C/c1ccccc1 | > 20.4 | > 20.4 µM | – |
| Cc1ccc(S(=O)(=O)N/N=C/c2oc(-c3ccccc3Cl)c(-c3ccccc3Cl)c2[N+](=O)[O-])cc1 | > 7.08 | > 7.08 µM | – |
| O=c1c2ccccc2[nH]c2c(O)ccc(O)c12 | – | – | inactive |
| Cn1ccnc1.Cn1ccnc1.Cn1ccnc1.Cn1ccnc1.[O-][Cl+3]([O-])([O-])[O-].[Pt+2] | > 200 | > 200 µM | – |
| CC(C)(C)OC1=C(OC(C)(C)C)C(O)(c2ccc(Cl)cc2)C1=O (stereo unspecified) | – | – | inactive |
| COc1ccc(/C=c2\sc3nnc(CCC(=O)Nc4cccc(C(F)(F)F)c4)n3c2=O)cc1 | > 7.59 | > 7.59 µM | – |
| N#CC(CCN1CCC(Nc2ccccc2)(c2nnnn2C2CCCCC2)CC1)(c1ccccc1)c1ccccc1 | > 200 | > 200 µM | – |
| O=C1CC[C@@H](S(=O)(=O)c2ccccc2)[C@@H](/C=C/c2ccccc2)O1 | – | – | inactive |

| Structure (SMILES) | EC50 [µM] | IC50 | outcome |
| --- | --- | --- | --- |
| O=C1Cc2c(-c3ccccc3)cc(-c3ccccc3)nc2-c2ccccc2N1 | > 200 | 6.17 µM | – |
| COc1ccc(OC)c(Cc2c(OC)ccc(OC)c2O)c1O | – | – | inactive |
| CC1(O)C2(c3ccccc3)CCC[N+]1(C)CC2 (stereo unspecified) | – | – | inactive |
| O=c1[nH]c2cc([N+](=O)[O-])ccc2nc1/C(=N/Nc1ccccc1)C(O)c1ccco1 (stereo unspecified) | > 234 | 89.1 µM | – |
| NC(=N\N=C\C(O)C(O)C(O)C(O)C(=O)O)/C(N)=N/N=C/C(O)C(O)C(O)C(O)C(=O)O (stereo unspecified) | – | – | inactive |
| C=C1[C@@H](OC(C)=O)C[C@@H]2C[C@]3(C)C(OC(C)=O)CC(C)(C)[C@@H]3C12O (stereo partly specified) | > 204 | > 204 µM | – |
| O=C1Nc2ccc(Br)cc2/C1=c1/sc2nc3ccccc3n2c1=O | > 50.1 | 42.7 µM | – |
| CC1(C)C(=O)C(O)=CC2C1=CCC1C2(C)C(=O)CC2(C)C(C(C)(O)C(=O)CC(O)C(C)(C)O)C(O)CC12C (stereo unspecified) | > 20 | 1.32 µM | – |
| CCOC(=O)c1c(SC(=O)/C=C/c2ccccc2)n(-c2ccccc2)c(=S)n(-c2ccccc2)c1=O | > 200 | 79.4 µM | – |
| Cc1cc2c(cc1C)C(=O)C(=O)N2 | > 148 | > 148 µM | – |
| O=P(O)(O)c1ccccc1Oc1ccccc1 | > 200 | > 200 µM | – |
| COc1ccc(C2C(C#N)=C(S)N(C3OC(CO)C(O)C(O)C3O)C(c3ccccc3)=C2C(C)=O)cc1 (stereo unspecified) | > 200 | 89.1 µM | – |
| CCC(C)C(NC(=O)C(N)CCC(=O)O)C(=O)NC(CCCCN)C(=O)NCC(=O)NC(C(=O)NC(C(=O)NC(CC(N)=O)C(=O)NC(CC(C)C)C(=O)NCC(=O)NC(CCCCN)C(=O)O)C(C)O)C(C)O (stereo unspecified) (H-EIKGTTNLGK-OH; configuration not given here) | – | – | inactive |
| COc1cc(/C=C/c2nc(NC(=S)Nc3ccccc3)nnc2C)cc(OC)c1OC | > 200 | 13.8 µM | – |
| C=CCC(C)C12CCNC(Cc3ccc(O)cc31)C2C (stereo unspecified) | > 200 | > 200 µM | – |
| CC(=O)OCSc1ncnc2c1ncn2CN1CCOCC1 | > 776 | 0.575 µM | – |
| Cc1ccc(NC(=O)CC2C(=O)Nc3ccccc3S2=O)cc1C (stereo unspecified) | > 15.1 | > 15.1 µM | – |
| CCOC(CC(=O)NCCNC(C)=O)OCC | – | – | inactive |
| Cc1cn(C2CC(NC(=O)NO)C(CO)O2)c(=O)[nH]c1=O (stereo unspecified) | > 200 | > 200 µM | – |
| C[C@]12CC[C@H]3[C@@H](CC=C4C[C@@H](O)CC[C@@]43C)[C@@H]1CC[C@@H]2N(CCO)CCO | > 200 | 60.3 µM | – |
| CCCCP(CCCC)(CCCC)=C(C(=O)OC)C(C(=O)OC)=C1SC(C(=O)OC)=C(C(=O)OC)S1 | > 200 | 33.1 µM | – |
| CC(C)(C)c1cc2c(c(C(C)(C)C)c1)OC(C1Nc3cc(C(C)(C)C)cc(C(C)(C)C)c3O1)N2 (stereo unspecified) | > 100 | 21.4 µM | – |

| Structure (SMILES) | EC50 [µM] | IC50 | outcome |
| --- | --- | --- | --- |
| COC1(CC2(OC)C=CC(=O)O2)C=CC(=O)O1 (stereo unspecified) | > 105 | 55 µM | – |
| CCCC(=O)O[C@H]1[C@@H](OC(C)=O)C/C(C)=C\[C@@H]2OC(=O)[C@]3(C)OC23[C@@H](O)C2C3(C)OC3CC(OC(C)=O)[C@@]21C (stereo partly specified) | > 117 | 32.4 µM | – |
| CCc1cc(Cc2cc(Cl)c(NC(=O)C(=O)C3NC(=O)NC3=O)c(CC)c2)cc(Cl)c1NC(=O)C(=O)C1NC(=O)NC1=O (stereo unspecified) | > 151 | 24.5 µM | – |
| O=C(CC1(O)C(=O)Nc2c(Cl)cc(Cl)cc21)c1ccc(F)cc1 (stereo unspecified) | > 28.2 | > 28.2 µM | – |
| O=C(c1cc(Cl)ccc1Cl)N1CCN(c2cccc(Cl)c2)CC1 | > 200 | 15.5 µM | – |
| N#CCN1c2ccccc2CCC1Cl (stereo unspecified) | > 200 | > 200 µM | – |
| N=C(N)SC12CC3CC(CC(C3)C1)C2 | > 200 | 138 µM | – |
| O=c1[nH]c2ccc(Cl)cc2c2oc(-c3ccccc3)nc12 | – | – | inactive |
| CC(C)=CCCc1c(C)ccc2c1C(=O)C(=O)C(C(C)C)=C2O | > 57.5 | 33.9 µM | – |
| CCOc1ccc(NCc2cc(OC)c(OC)c(OC)c2)cc1 | > 158 | 0.324 µM and 0.339 µM | – |
| CC(C1=C(CCN(C)C)Cc2ccccc21)c1ccccn1 (stereo unspecified) | > 200 | 155 µM | – |
| NC(N)=NS(=O)(=O)c1ccc(N=c2c3ccccc3n(-c3ccccc3)c3ccccc23)cc1 | – | – | inactive |
| CCCCCCCCCCCC(=O)c1c(O)cc(C)oc1=O | > 100 | 5.37 µM | – |
| Cc1ccc2nc(N)[nH]c(=O)c2c1Sc1ccncc1 | > 363 | 1.35 µM | – |
| Cc1[nH]n(-c2nc3c(c(=O)[nH]2)CCCC3)c(=O)c1CCO | > 200 | 129 µM | – |
| O=C(OC1CCCCC1)c1cc(NC(=S)c2ccccc2F)ccc1Cl | 0.0363 | 18.2 µM | – |
| NC1=NS(=O)(=O)Nc2nc(-c3ccc([N+](=O)[O-])cc3)[nH]c21 | > 200 | > 200 µM | – |
| O=C(O)CCc1nc(-c2ccccc2)c(-c2ccccc2)o1 | > 200 | > 200 µM | – |
| COC(=O)C1CN=CN1CCc1ccccc1 (stereo unspecified) | > 200 | > 200 µM | – |
| CN(C(=O)/C=C/c1ccccc1)C1C2CN3CCC(O2)C13 (stereo unspecified) | – | – | inactive |
| CN(C)C=Nc1ccc2[nH]c3ccccc3c2c1 | > 200 | 107 µM | – |
| O=S(Cc1cc2c(cc1-c1ccccc1)OCO2)c1ccccc1 (stereo unspecified) | > 269 | 9.55 µM | – |

| Structure (SMILES) | EC50 [µM] | IC50 | outcome |
| --- | --- | --- | --- |
| CCSC1=C(C)N(C=NC(C)(C)C)CC1 | > 1100 | > 1100 µM | – |
| N#C/C(=C\c1ccc(O)c(O)c1)C(=O)NC1CCC(CC2CCC(NC(=O)/C(C#N)=C/c3ccc(O)c(O)c3)CC2)CC1 (stereo unspecified) | > 200 | 1.07 µM | – |
| CN(C)c1nc(NN)c2c(-c3ccccc3)c(-c3ccccc3)oc2n1 | > 100 | > 100 µM | – |
| CCCCCCCC(=O)c1ccc(O)c(C(=O)Nc2cccc(C(F)(F)F)c2)c1 | > 12.9 | 0.145 µM | – |
| Cn1c2c(c3ccccc31)CCN(CCCCN1CCN(c3cccc(Cl)c3)CC1)C2=O | > 11 | > 11 µM | – |
| CC(=O)O[C@]12CCCC1C1(O)C(O)CCCC12 (stereo partly specified) | > 200 | > 200 µM | – |
| COC(=O)C1=C(O)C(C(=O)OC)C2CC(=O)CC1C2(C)C (stereo unspecified) | > 200 | > 200 µM | – |
| N#CC1(O)CCCCCCCCCCC1 | > 200 | > 200 µM | – |
| CCOC(=O)C(c1ccsc1)C(C(=O)OCC)c1cccs1 (stereo unspecified) | > 200 | > 200 µM | – |
| CCCCC[C@H](O)[C@H](C)C=C1SCCCS1 | > 200 | 97.7 µM | – |
| O=c1cc(N=Nc2ccc(O)cc2)[nH]c(=O)[nH]1 | > 200 | 11.5 µM | – |
| CCC(C)N1CN(c2ccccc2)C2(CCN(CCCC(=O)c3ccc(F)cc3)CC2)C1=O (stereo unspecified) | > 200 | 3.55 µM | – |
| O=C(O)c1c2c(cc3c1CC1(Cc4ccccc4C1)C3)CCC2 | > 200 | 45.7 µM | – |
| CCCCOP(=O)(OCCCC)/C(C#N)=C/c1ccco1 | > 219 | 178 µM | – |
| CCN(CC)CCn1c2cc3c(cc2c(=O)c2cccnc21)OCO3 | > 200 | 7.94 µM | – |
| c1cc(C2N3CCCN2CC3)ccn1 (stereo unspecified) | – | – | inactive |
| CC(C)CC(N)C(=O)NC(CC(=O)O)C(=O)NC(CCCCN)C(=O)NC(C)C(=O)NC(CO)C(=O)NC(Cc1ccc(O)cc1)C(=O)NC(CO)C(=O)NC(C(=O)NC(CC(N)=O)C(=O)NC(Cc1cnc[nH]1)C(=O)NC(CC(C)C)C(=O)O)C(C)O (stereo unspecified) (H-LDKASYSTNHL-OH; configuration not given here) | > 50.1 | > 50.1 µM | inactive |
| COc1cc(C)c(Br)c2c1C(=O)C(Br)(Br)CC2 | > 200 | 0.309 µM | – |
| CC(C)n1cc(C(C)(C)C)nc1SSc1nc(C(C)(C)C)cn1C(C)C | > 200 | > 200 µM | – |
